The text below walks through data of US20140349955A1, “USE OF FLUORINE-CONTAINING WATER SOLUBLE PLATINUM COMPLEX IN PREPARING DRUGS FOR PREVENTION AND TREATMENT OF CANCERS” (GUDUI BIOPHARMA TECHNOLOGY INC., priority 2011, published 2014).

Common to all, as to type: cell-based, human
Holding throughout (settings): 96 h

One experiment deals with A549. Kind of experiment: Synergistic cytotoxicity test (MTS), A549. The method, then: (§1) Containing 10% bovine fetal serum, 1 mM of sodium pyruvate, 2 mM of L-glutamine, 50 U/mL of penicillin, 50 μg/ mL of streptomycin.
(§2) Human tumor cells: du145-human prostate cancer; MCF-7-human breast cancer; SK0V3-human ovarian carcinoma, HT-29-human colon cancer; A549-human non-small cell lung cancer (adenocarcinoma), H460-human non-small cell lung cancer (large cell carcinoma), and animal tumor cells: L1210-mice leukemia cells used in the following activity test experiments were all purchased from Shanghai An Yan Commercial Trade Co., Ltd.
(§3) MTS test method was used in cytotoxicity assay. The tumor cells of logarithmic phase were collected, and then the concentration of cell suspension was adjusted, 100 μL of the cell suspension was added to each well, the cells were placed at 1000-10000 cells/well (edge well filled with sterile PBS). Cells were incubated at 37° C. with 5% CO2 to make cell monolayer overspread the bottom of each well (96-well flat-bottomed microplate). 100 μL of certain concentration solution of a mixture of the fluorine-containing water-soluble platinum complex with other antitumor agents was added to each well. Each condition was measured in five replicates. The microplate was incubated at 37° C. with 5% CO2 for 96 h and checked with inverted microscope. MTS working reagent: To 2 mL of MTS (2 mg/mL, prepared by DPBS) was added 100 μL of PMS (1 mg/mL, prepared by DPBS). The cell culture medium was discarded after centrifugation, the cell culture plate was carefully washed 2-3 times with PBS. Before detecting the absorbance value (OD), to each sample containing well was added 100 μL of cell culture medium, then 20 μL of MTS working reagent was added. After incubation at 37° C. with 5% CO2 for 2 h, the OD (optical density) value was detected at 490 nm.
(§4) Each of above experiment was repeated five times, and the cell viability was calculated according to the mean OD values.
(§5) Cell Viability (%)=(treated group OD value/control group OD value)×100
(§6) Control group: the conditions are the same as the above without adding the tested drug mixture (100 μL of culture medium was added in stead), and finally the absorbance was measured at 490 nm to obtain the OD value of the tumor cells.
(§7) Drug Group-1: only the fluorine-containing water-soluble platinum complex was added under the above conditions to obtain cell viability of tumor cells.
(§8) Drug Group-2: only the other chemotherapeutic drug (active ingredient) was added under the above conditions to obtain cell viability of tumor cells.
(§9) Drug Combination Group: the fluorine-containing water-soluble platinum complex and other chemotherapeutic drugs were added simultaneously under the above conditions to obtain cell viability of tumor cell. (2) Evaluation Method:
(§10) When the fluorine-containing water-soluble platinum complexes used in combination with other chemotherapy drugs, the inhibition effect on cancer cell proliferation is enhanced or synergistic, and the effect was calculated using the following formula:
(§11) Combination Effect (%)={[(A1-X)+(A2-X)]/(A1-A2)|}×100
(§12) wherein, A1 is the cell viability of drug group-1, A2 is the cell viability of drug group-2, X is the cell viability of drug combination group, (A1-A2)| is the absolute value of the cell viability difference between the two groups.
(§13) Calculated according to the above formula, when the results of [Combination Effect (%)]>+100%, that means the effect of inhibition on cell proliferation is enhanced or synergistic (3) Experimental Result: […]

The next experiment concerns SK0V3. Kind of experiment: Synergistic cytotoxicity test (MTS), SKOV3. The method, then: as §1, §2, §3, §4, §5, §6, §7, §8, §9, §10, §11, §12, §13
The test system of the next experiment is MCF7. The experiment is described as follows: Synergistic cytotoxicity test (MTS), MCF7. The method, then:
as §1, §2, §3, §4, §5, §6, §7, §8, §9, §10, §11, §12, §13

Another experiment has as its system HT29. The experiment is described as follows: Synergistic cytotoxicity test (MTS), HT29. As for the experimental part: as §1, §2, §3, §4, §5, §6, §7, §8, §9, §10, §11, §12, §13
Another experiment has as its system DU145. Kind of experiment: Synergistic cytotoxicity test (MTS), DU145. The method, then:
as §1, §2, §3, §4, §5, §6, §7, §8, §9, §10, §11, §12, §13

The subject of another experiment is H460. The experiment is described as follows: Synergistic cytotoxicity test (MTS), H460. As for the experimental part:
as §1, §2, §3, §4, §5, §6, §7, §8, §9, §10, §11, §12, §13

The mark [1] stands for this setting: other chemotherapy drug (at its listed dosage) combined with Complex 2 (dosage: 1 μM).
Where [2] appears, read: other chemotherapy drug (at its listed dosage) combined with Complex 3 (dosage: 1 μM).
[3] abbreviates: other chemotherapy drug (at its listed dosage) combined with Complex 5 (dosage: 1 μM).
The mark [4] stands for this setting: other chemotherapy drug (at its listed dosage) combined with Complex 6 (dosage: 1 μM).

Consider `Nc1ccn([C@@H]2O[C@H](CO)[C@@H](O)C2(F)F)c(=O)n1` [Gemcitabine], for which the “the effect of drug combination (Combination Effect)” value (shortened to “the effect of drug combination”) is “⊚ (⊚ represents the effect of drug combination > 300%)” with A549 (setting [1]); “⊚ (⊚ represents the effect of drug combination > 300%)” with A549 (setting [2]); “⊚ (⊚ represents the effect of drug combination > 300%)” with SK0V3 (other chemotherapy drug (at its listed dosage) combined with Complex 2 (dosage: 1 μM), SLOV3); “○ (○ represents: 100% < the effect of drug combination < 300%)” in the experiment with SK0V3 (other chemotherapy drug (at its listed dosage) combined with Complex 3 (dosage: 1 μM), SlOV3); “○ (○ represents: 100% < the effect of drug combination < 300%)” with SK0V3 (other chemotherapy drug (at its listed dosage) combined with Complex 5 (dosage: 1 μM), SLOV3); “○ (○ represents: 100% < the effect of drug combination < 300%)” with SK0V3 (other chemotherapy drug (at its listed dosage) combined with Complex 6 (dosage: 1 μM), SLOV3). The “the effect of drug combination” value in the experiment on MCF7 (setting [1]), in the experiment with MCF7 (setting [2]), in the experiment with MCF7 (setting [3]), in the experiment on MCF7 (setting [4]), in the experiment with HT29 (setting [1]) and with HT29 (setting [2]) was “⊚ (⊚ represents the effect of drug combination > 300%)” in each case. The “the effect of drug combination” value in the experiment on HT29 (setting [3]) is “⊚ (⊚ represents the effect of drug combination > 300%)”; with HT29 (setting [4]) it was “⊚ (⊚ represents the effect of drug combination > 300%)”; with DU145 (setting [1]) it was “⊚ (⊚ represents the effect of drug combination > 300%)”; in the experiment with DU145 (setting [2]) it was “○ (○ represents: 100% < the effect of drug combination < 300%)”; with DU145 (setting [3]), “○ (○ represents: 100% < the effect of drug combination < 300%)”; with DU145 (setting [4]), “○ (○ represents: 100% < the effect of drug combination < 300%)”. The “the effect of drug combination” value in the experiment with H460 (setting [3]) and with H460 (setting [4]) was “⊚ (⊚ represents the effect of drug combination > 300%)” in each case.
